In ChEMBL document CHEMBL1201862, “PubChem BioAssay data set” (2004):
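Compound exposure: 48 hours, 5 concentrations, 96-well plates. GI50: concentration for 50% inhibition of growth.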 Calls of active or inactive are those of the source. Cut-off read from the data, not from the text of the source: active = GI50 up to about 1.1 µM and inactive = higher.

Key:
Assay in all cases: growth of human tumour cells (NCI), 48 h
[1] = test system: HCT-116
[2] = test system: SK-OV-3
[3] = test system: PC-3
[4] = test system: CAKI-1
[5] = test system: KM12
[6] = test system: SNB-75
[7] = test system: SN12C
[8] = test system: TK-10
[9] = test system: NCI-H23
[10] = test system: LOX IMVI
[11] = test system: OVCAR-5
[12] = test system: SNB-19
[13] = test system: SF-295
[14] = test system: ACHN
[15] = test system: RPMI-8226
[16] = test system: HCT-15
[17] = test system: MOLT-4
[18] = test system: SR
[19] = test system: OVCAR-8
[20] = test system: HT-29

Row | Structure (SMILES) | GI50 [1] | GI50 [2] | GI50 [3] | GI50 [4] | GI50 [5] | GI50 [6] | GI50 [7] | GI50 [8] | GI50 [9] | GI50 [10] | GI50 [11] | GI50 [12] | GI50 [13] | GI50 [14] | GI50 [15] | GI50 [16] | GI50 [17] | GI50 [18] | GI50 [19] | GI50 [20]
1 | CCOC(=O)/C1=C(\C)N(c2ccc(C)cc2)C(=O)c2ccccc2C(=O)c2c(OC(C)=O)ccc(OC(C)=O)c21 | 15.3 µM (inactive) | 17.2 µM (inactive) | 26.2 µM (inactive) | 13.3 µM (inactive) | 15 µM (inactive) | 25.8 µM (inactive) | 20.4 µM (inactive) | 19.3 µM (inactive) | 19.9 µM (inactive) | 14.4 µM (inactive) | 21.9 µM (inactive) | 25.2 µM (inactive) | 14.5 µM (inactive) | 16.8 µM (inactive) | 13.8 µM (inactive) | 16.4 µM | 6.27 µM (inactive) | 15.8 µM (inactive) | 36.8 µM (inactive) | 14.6 µM (inactive)
2 | CN1CCc2c(sc3ncn(N)c(=N)c23)C1 | > 100 µM (inactive) | > 100 µM (inactive) | > 100 µM (inactive) | > 100 µM (inactive) | > 100 µM (inactive) | > 100 µM (inactive) | > 100 µM (inactive) | > 100 µM (inactive) | > 100 µM (inactive) | > 100 µM (inactive) | > 100 µM (inactive) | > 100 µM (inactive) | > 100 µM (inactive) | > 100 µM (inactive) | > 100 µM (inactive) | > 100 µM | > 100 µM (inactive) | 63.8 µM (inactive) | > 100 µM (inactive) | > 100 µM (inactive)
3 | c1ccc(CCN(Cc2nc3ccccc3[nH]2)Cc2nc3ccccc3[nH]2)cc1 | 4.67 µM (inactive) | 24.4 µM (inactive) | 11.5 µM (inactive) | 3.85 µM (inactive) | 12.3 µM (inactive) | 16.4 µM (inactive) | 14.6 µM (inactive) | 16.3 µM (inactive) | 16 µM (inactive) | 10.1 µM (inactive) | 23.8 µM (inactive) | 16.2 µM (inactive) | 14.8 µM (inactive) | 4.79 µM (inactive) | 3.05 µM (inactive) | 7.45 µM | 6.59 µM (inactive) | 9.27 µM (inactive) | 6.18 µM (inactive) | 17.3 µM (inactive)
4 | C/C(=N\NC(=N)N)C(CN(C)C)C(c1ccccc1)c1c(O)c2ccccc2oc1=O (stereo not given) | > 100 µM (inactive) | > 100 µM (inactive) | > 100 µM (inactive) | > 100 µM (inactive) | > 100 µM (inactive) | 98.4 µM (inactive) | > 100 µM (inactive) | > 100 µM (inactive) | > 100 µM (inactive) | > 100 µM (inactive) | > 100 µM (inactive) | > 100 µM (inactive) | > 100 µM (inactive) | > 100 µM (inactive) | > 100 µM (inactive) | > 100 µM | > 100 µM (inactive) | > 100 µM (inactive) | > 100 µM (inactive) | > 100 µM (inactive)
5 | CC(C)=CCc1ccc2[nH]c3c(c2c1)C(=O)C(=O)C(C)=C3C(O)C(C)O (stereo not given) | 1.78 µM (inactive) | 16.2 µM (inactive) | 9.57 µM (inactive) | 4.38 µM (inactive) | 16.5 µM (inactive) | 17.7 µM (inactive) | 8.55 µM (inactive) | 2.52 µM (inactive) | 5.4 µM (inactive) | 2 µM (inactive) | 18.4 µM (inactive) | 17 µM (inactive) | 12.2 µM (inactive) | 4.27 µM (inactive) | 1.82 µM (inactive) | 2.32 µM | 1.7 µM (inactive) | 2.45 µM (inactive) | 2.13 µM (inactive) | 9.33 µM (inactive)
6 | CCCCCCC1CC(=O)C1(Cl)Cl (stereo not given) | 16.7 µM (inactive) | > 100 µM (inactive) | 25.1 µM (inactive) | 18.9 µM (inactive) | 22.4 µM (inactive) | 16.6 µM (inactive) | 29.2 µM (inactive) | > 100 µM (inactive) | 25.2 µM (inactive) | 14.8 µM (inactive) | > 100 µM (inactive) | 63.7 µM (inactive) | 33.9 µM (inactive) | 18.3 µM (inactive) | 0.377 µM (active) | 31 µM | 13.5 µM (inactive) | > 10 µM (inactive) | 23.2 µM (inactive) | 26.7 µM (inactive)
7 | COc1cc2nc(-c3c(F)cccc3F)n(Cc3c(F)cccc3F)c2cc1Cc1c(F)cccc1F | > 26.7 µM (inactive) | > 100 µM (inactive) | > 100 µM (inactive) | 8.77 µM (inactive) | 3.77 µM (inactive) | 2.74 µM (inactive) | > 69.8 µM (inactive) | > 100 µM (inactive) | > 100 µM (inactive) | > 100 µM (inactive) | > 100 µM (inactive) | > 100 µM (inactive) | > 100 µM (inactive) | > 42.6 µM (inactive) | 7.71 µM (inactive) | > 100 µM | 6.84 µM (inactive) | > 20.4 µM (inactive) | > 100 µM (inactive) | 3.53 µM (inactive)
